Legend:
[1] = Water adsorption of the crystals (vapor adsorption isotherm); format: physicochemical; settings: 25° C.
Protocol: The Measuring Method of the Water Adsorption of the Crystals (Creation of the Vapor Adsorption Isotherm)
• (1) The measuring method of water adsorption amount and conditions
100 mg of each of the above obtained α-type, γ-type and ε-type crystals were weighed and vacuum dried at 50° C. overnight. Then, under the constant temperature of 25° C., the water adsorption amount of the crystals was determined with a full automatic vapor adsorption measuring apparatus (BELSORP-18, BEL Japan, Inc.) (Mitsuiki et al., J. Agric. Food Chem., vol. 46, no. 9, pp. 3528-3534 (1998)). • (2) The measurement results

[2] = Temperature changes of the powder X-ray diffraction patterns (crystal transition, T-G curves); format: physicochemical; settings: from T-G curves (FIG. 10)
Protocol: Measurement of the Temperature Changes of the Powder X-Ray Diffraction Patterns of the α-Type, γ-Type, ε-Type, and η-Type Crystals
• (1) The measuring method and conditions
The measurement was conducted in the same conditions as those of the above measurement of the powder X-ray diffraction patterns.

COC(=O)[C@H](Cc1ccc(-n2c(=O)c3cc(N(C)C)ccc3n(C)c2=O)cc1)NC(=O)c1c(Cl)cccc1Cl [ε-type crystal]
water adsorption (in words) ([1]; listed as ε-type): particularly low water adsorption

COC(=O)[C@H](Cc1ccc(-n2c(=O)c3cc(N(C)C)ccc3n(C)c2=O)cc1)NC(=O)c1c(Cl)cccc1Cl [θ-type crystal]
thermodynamic stability in high temperature range ([2]; high temperature range): stably exists

COC(=O)[C@H](Cc1ccc(-n2c(=O)c3cc(N(C)C)ccc3n(C)c2=O)cc1)NC(=O)c1c(Cl)cccc1Cl [α-type crystal]
order of thermodynamic stability of crystal forms at room temperature ([2]; room temperature): α-type>η-type>γ-type>ε-type>θ-type
water adsorption (in words) ([1]; listed as α-type): low water adsorption

COC(=O)[C@H](Cc1ccc(-n2c(=O)c3cc(N(C)C)ccc3n(C)c2=O)cc1)NC(=O)c1c(Cl)cccc1Cl [γ-type crystal]
water adsorption (in words) ([1]; listed as γ-type): particularly low water adsorption

Source: patent US7951942B2, “Crystals of phenylalanine derivatives and production methods thereof” (Ajinomoto Co., Inc., priority 2003, dated 2011)
